Converted amounts (≈) assume the structure as drawn.
Test system: Escherichia coli
Test: minimum inhibitory concentration (MIC)
Experimental: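 Broth microdilution MIC (Sensititre BOPO7F bovine plate, CLSI methods) of 19 antimicrobials against field isolates of P. multocida, M. haemolytica, H. somni (deep nasopharyngeal swabs) and E. coli, Enterococcus spp. (rectal swabs) from weaned dairy heifers. Incubation 16-24 h at 35 C. MIC is the lowest concentration preventing visible growth. Values with <= or > lie at the tested range limits. Trimethoprim-sulfamethoxazole is given as the trimethoprim component of a 1:19 mixture.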

CN1C[C@@H]2C[C@H]1CN2c1cc2c(cc1F)c(=O)c(C(=O)O)cn2C1CC1 [Danofloxacin]
Conditions | minimum inhibitory concentration [µg/mL]
isolate (source animal id): 8 | ≤ 0.12
isolate (source animal id): 9 | > 1
isolate (source animal id): 10 | ≤ 0.12
isolate (source animal id): 11 | ≤ 0.12
isolate (source animal id): 12 | > 1
isolate (source animal id): 13 | ≤ 0.12
isolate (source animal id): 14 | 0.5 (≈ 1.4 µM)
isolate (source animal id): 15 | ≤ 0.12
isolate (source animal id): 16 | ≤ 0.12
isolate (source animal id): 98 | ≤ 0.12
isolate (source animal id): 99 | ≤ 0.12
isolate (source animal id): 100 | ≤ 0.12
isolate (source animal id): 101 | ≤ 0.12
isolate (source animal id): 102 | ≤ 0.12
isolate (source animal id): 103 | ≤ 0.12
isolate (source animal id): 104 | ≤ 0.12
isolate (source animal id): 105 | ≤ 0.12
isolate (source animal id): 106 | > 1
isolate (source animal id): 107 | ≤ 0.12
isolate (source animal id): 108 | ≤ 0.12
isolate (source animal id): 109 | ≤ 0.12
isolate (source animal id): 110 | ≤ 0.12
isolate (source animal id): 111 | > 1
isolate (source animal id): 112 | ≤ 0.12
isolate (source animal id): 113 | > 1
isolate (source animal id): 114 | ≤ 0.12
isolate (source animal id): 115 | 1 (≈ 2.8 µM)
isolate (source animal id): 116 | > 1
isolate (source animal id): 117 | ≤ 0.12
isolate (source animal id): 118 | 0.5 (≈ 1.4 µM)
isolate (source animal id): 119 | > 1
isolate (source animal id): 120 | 1 (≈ 2.8 µM)
isolate (source animal id): 121 | ≤ 0.12
isolate (source animal id): 122 | ≤ 0.12
isolate (source animal id): 123 | ≤ 0.12
isolate (source animal id): 124 | > 1
isolate (source animal id): 125 | ≤ 0.12
isolate (source animal id): 126 | > 1
isolate (source animal id): 127 | ≤ 0.12
isolate (source animal id): 128 | ≤ 0.12
isolate (source animal id): 129 | 1 (≈ 2.8 µM)
isolate (source animal id): 130 | ≤ 0.12
isolate (source animal id): 131 | > 1
isolate (source animal id): 132 | 0.5 (≈ 1.4 µM)
isolate (source animal id): 133 | ≤ 0.12
isolate (source animal id): 134 | ≤ 0.12
isolate (source animal id): 135 | ≤ 0.12
isolate (source animal id): 136 | ≤ 0.12
isolate (source animal id): 137 | 1 (≈ 2.8 µM)
isolate (source animal id): 138 | > 1
isolate (source animal id): 139 | 0.25 (≈ 0.7 µM)
isolate (source animal id): 140 | ≤ 0.12
isolate (source animal id): 141 | ≤ 0.12
isolate (source animal id): 142 | ≤ 0.12
isolate (source animal id): 143 | 1 (≈ 2.8 µM)
isolate (source animal id): 144 | > 1
isolate (source animal id): 145 | ≤ 0.12
isolate (source animal id): 146 | 0.5 (≈ 1.4 µM)
isolate (source animal id): 147 | > 1
isolate (source animal id): 148 | 0.25 (≈ 0.7 µM)
isolate (source animal id): 149 | ≤ 0.12
isolate (source animal id): 150 | ≤ 0.12
isolate (source animal id): 151 | ≤ 0.12
isolate (source animal id): 152 | ≤ 0.12
isolate (source animal id): 153 | ≤ 0.12
isolate (source animal id): 154 | 0.5 (≈ 1.4 µM)
isolate (source animal id): 155 | ≤ 0.12
isolate (source animal id): 156 | 0.5 (≈ 1.4 µM)
isolate (source animal id): 157 | ≤ 0.12
isolate (source animal id): 158 | ≤ 0.12
isolate (source animal id): 159 | ≤ 0.12
isolate (source animal id): 160 | ≤ 0.12
isolate (source animal id): 161 | ≤ 0.12
isolate (source animal id): 162 | > 1
isolate (source animal id): 163 | ≤ 0.12
isolate (source animal id): 164 | ≤ 0.12
isolate (source animal id): 165 | ≤ 0.12
isolate (source animal id): 166 | ≤ 0.12
isolate (source animal id): 167 | ≤ 0.12
isolate (source animal id): 168 | ≤ 0.12
isolate (source animal id): 169 | ≤ 0.12
isolate (source animal id): 170 | ≤ 0.12
isolate (source animal id): 171 | ≤ 0.12
isolate (source animal id): 172 | ≤ 0.12
isolate (source animal id): 173 | ≤ 0.12
isolate (source animal id): 174 | ≤ 0.12
isolate (source animal id): 175 | ≤ 0.12
isolate (source animal id): 176 | ≤ 0.12
isolate (source animal id): 177 | ≤ 0.12
isolate (source animal id): 178 | ≤ 0.12
isolate (source animal id): 179 | ≤ 0.12
isolate (source animal id): 180 | ≤ 0.12
isolate (source animal id): 181 | ≤ 0.12
isolate (source animal id): 182 | ≤ 0.12
isolate (source animal id): 183 | ≤ 0.12
isolate (source animal id): 184 | ≤ 0.12
isolate (source animal id): 185 | ≤ 0.12
isolate (source animal id): 186 | ≤ 0.12
isolate (source animal id): 187 | ≤ 0.12
isolate (source animal id): 188 | > 1

— the supplement of paper PMC8612539
